Source: patent publication US20110038948A1, “Methods of Reducing the Production of Reactive Oxygen Species and Methods of Screening or Identifying Compounds and Compositions that Reduce the Production of Reactive Oxygen Species” (UNIVERSITY OF TENNESSEE RESEARCH FOUNDATION, priority 2005, published 2011)

Columns and labels:
adiponectin = assay: Adiponectin expression in 3T3-L1 adipocytes; type: cell-based, mouse; conditions: 48 h
Protocol: 3T3-L1 pre-adipocytes were incubated at a density of 8000 cells/cm^2 (10 cm^2 dish) and grown in Dulbecco's modified Eagle's medium (DMEM) containing 10% FBS and antibiotics (adipocyte medium) at 37° C. in 5% CO2 in air. Confluent pre-adipocytes were induced to differentiate with a standard differentiation medium consisting of DMEM-F10 (1:1, vol/vol) medium supplemented with 1% fetal bovine serum (FBS), 1 μM dexamethasone, isobutylmethylxanthine (IBMX) (0.5 mM) and antibiotics (1% Penicillin-Streptomycin). Pre-adipocytes were maintained in this differentiation medium for 3 days and subsequently cultured in adipocyte medium. Cultures were re-fed every 2-3 days to allow 90% cells to reach fully differentiation before conducting chemical treatment. […] Cell viability was measured via trypan blue exclusion. Adipocyte and muscle 18s, TNFα, IL-6, IL-8, IL-15 and adiponectin were quantitatively measured using a smart cycler real-time PCR system (Cepheid, Sunnyvale, Calif.) with a TaqMan 1000 Core Reagent Kit (Applied Biosystems, Branchburg, N.J.). […] Reactions of quantitative RT-PCR for standards and unknown samples were also performed according to the instructions of Smart Cycler System (Cepheid, Sunnyvale, Calif.) and TaqMan Real Time PCR Core Kit (Applied Biosystems, Branchburg, N.J.). The mRNA quantitation for each sample was further normalized using the corresponding 18s quantitation.

cyclin A = assay: Cyclin A expression in cultured adipocytes; type: cell-based, mouse; conditions: compound plus glucose 30 mmol/L, 48 hours
Protocol: 3T3-L1 preadipocytes were incubated at a density of 8000 cells/cm^2 (10 cm^2 dish) and grown in Dulbecco's modified Eagle's medium (DMEM) containing 10% FBS and antibiotics (adipocyte medium) at 37° C. in 5% CO2 in air. Confluent preadipocytes were induced to differentiate with a standard differentiation medium consisting of DMEM-F10 (1:1, vol/vol) medium supplemented with 1% FBS, 1 μM dexamethasone, IBMX (0.5 mM) and antibiotics (1% Penicillin-Streptomycin). Preadipocytes were maintained in this differentiation medium for 3 days and subsequently cultured in adipocyte medium. Cultures were re-fed every 2-3 days to allow 90% of cells to reach full differentiation before conducting chemical treatment. Chemicals were freshly diluted in adipocyte medium before treatment. […] Cell viability was measured via trypan blue exclusion. Adipocyte 18s, cyclin A, NADPH oxidase, and UCP2 were quantitatively measured using a Smart Cycler Real Time PCR System (Cepheid, Sunnyvale, Calif.) with a TaqMan 1000 Core Reagent Kit (Applied Biosystems, Branchburg, N.J.). […] Reactions of quantitative RT-PCR for standards and unknown samples were also performed according to the instructions of Smart Cycler System (Cepheid, Sunnyvale, Calif.) and TaqMan Real Time PCR Core Kit (Applied Biosystems, Branchburg, N.J.). The mRNA quantitation for each sample was further normalized using the corresponding 18s quantitation.

C2C12 myotubes = assay: Fatty acid oxidation (palmitate oxidation) in muscle cells; type: cell-based, murine; conditions: calcitriol 10 nM, 48 hours; p<0.05
Protocol: FIG. 53: Fatty acid oxidation was determined via palmitate oxidation. […] Data are corrected for DNA content. Values are presented as mean±SEM, n=6. Means with different letter differ with p<0.05.
The adipose tissue-skeletal muscle endocrine axis may play a potential role in regulating metabolic energy partitioning. […] While both calcium and dairy accelerate adipose tissue loss, dairy exerts a substantially greater effect and exerts a protective effect on lean tissue during hypocaloric diets. We have shown that dietary calcium modulation of adiposity is mediated, in part, by suppression of calcitriol, while the additional effect of dairy is mediated by additional bioactive components; these include the high concentration of leucine, a key factor in the regulation of muscle protein turnover. […] However, the effect of leucine and calcium, in regulating this process is unclear. Accordingly, present study was designed to investigate the effect of leucine, calcitriol and calcium on energy metabolism in murine adipocytes and muscle cells. Leucine induced a 41% increase in fatty acid oxidation in C2C12 muscle cells (p<0.001) and decreased fatty acid synthase gene expression by 66% (p<0.001) in 3T3-L1 adipocytes. Calcitriol decreased muscle cell fatty acid oxidation by 17% (p<0.05) and increased adipocyte FAS gene expression by 3-fold (p<0.05).

3T3-L1 adipocytes = assay: Cytokine antibody array of culture medium; type: cell-based, mouse
Protocol: RAW 264 macrophages and 3T3-L1 preadipocytes (American Type Culture Collection) were incubated at a density of 8000 cells/cm2 (10 cm2 dish) and grown in Dulbecco's modified Eagle's medium (DMEM) containing 10% FBS and antibiotics (adipocyte medium) at 37° C. in 5% CO2 in air. Confluent 3T3-L1 preadipocytes were induced to differentiate with a standard differentiation medium consisting of DMEM-F10 (1:1, vol/vol) medium supplemented with 1% FBS, 1 μM dexamethasone, IBMX (0.5 mM) and antibiotics (1% Penicillin-Streptomycin). Preadipocytes were maintained in this differentiation medium for 3 days and subsequently cultured in adipocyte medium. Cultures were re-fed every 2-3 days to allow 90% cells to reach fully differentiation for 3T3-L1 adipocytes or grow to a confluence for RAW 264 before conducting chemical treatment.
Human adipocytes (Zen-Bio, Inc.), 3T3-L1 adipocytes, RAW264 macrophages were obtained and co-cultured by using transwell inserts with 0.4 μm porous membranes (Corning) to separate adipocytes and macrophages. All data are expressed as mean±SEM. Data were evaluated for statistical significance by analysis of one-way or two-way variance (ANOVA; means with different letter differ, p<0.05).
A TansSignal™ mouse cytokine antibody array kit (Panomics, Fremont, Calif.) was used to detect cytokine protein released in culture medium according to the manufacture's instruction. […]

Row | Compound | effect on adiponectin production (adiponectin) | effect on glucose stimulated cyclin A expression (cyclin A) | decrease in muscle cell fatty acid oxidation (C2C12 myotubes) [%] | inflammatory cytokine production (3T3-L1 adipocytes; co-culture of 3T3-L1 adipocytes with macrophages) | production of multiple inflammatory cytokine proteins (3T3-L1 adipocytes; differentiated 3T3-L1 adipocytes cultured alone)
1 | OO [H2O2, hydrogen peroxide] | without significant effect |  |  |  | 
2 | C=C1/C(=C\C=C2/CCC[C@]3(C)[C@@H]([C@H](C)CCCC(C)(C)O)CC[C@@H]23)C[C@@H](O)C[C@@H]1O [calcitriol, 1,25-(OH)2-D3] |  | augmented | 17 | further stimulated | up-regulated
